The numbers were not newly measured in US20190381137A1, “BOLAAMPHIPHILIC COMPOUNDS, COMPOSITIONS AND USES THEREOF” (Lauren Sciences LLC, priority 2012, published 2019), which cites them from elsewhere.

The conditions of this series: conjugate acid (protonated form) of the imidazole side chain.

`N[C@@H](Cc1c[nH]cn1)C(=O)O` [histidine]: the pKa result was “approximately 6.0”.
